# How the values were obtained:
# [1] = tested on: domestic shorthair (DSH) breed cats; assay: 28-day feeding study in cats: systemic health, body weight, blood counts, serum biochemistry; type: in vivo; conditions: treatment diet 2.3 g STAY-C 50/kg cat food, 28 days
# Procedure: (§1) 18 domestic shorthair (DSH) breed cats (mean age 3.83±1.85 years, mean body weight 4.2+1.1 kg) were divided by age and gender into two equal groups (n=9) to be fed for 28 days with a • control diet or • treatment diet (2.3 g STAY-C® 50/kg cat food) As the “clean tooth” model was used, all cats received a dental cleaning consisting of ultrasonic scaling and, where necessary, using an abrasor after […], before the beginning of the study. The animals were then treated with the diets for 28 days. The analysis of the different indices were carried out according known methods.
# [2] = tested on: domestic shorthair (DSH) breed cats; assay: clean tooth model, 28-day feeding study in cats: gingivitis, plaque and calculus indices; type: in vivo; conditions: treatment diet 2.3 g STAY-C 50/kg cat food, 28 days
# Procedure: as §1
smiles,measurement,setting,value
"O=C1O[C@H]([C@@H](O)CO)C(O)=C1OP(=O)(O)O.[Na+].[Na+].[Na+] [STAY-C®50, trisodium L-ascorbic acid-2-monophosphate]","changes in systemic health, body weight, blood counts or serum biochemistry",[1],No changes
same,"Calculus indices, reduction compared to control group",[2],about 14%
same,Plaque indices,[2],reduced significantly
same,Gingivitis indices,[2]; control group 28% increase,not increased

# Reference: patent US20130230470A1, “PET FOOD COMPOSITION” (DSM IP ASSETS B.V., priority 2003, published 2013)
